Assays:
[1] = tested on: human ankle cartilage explants treated with IL-1β; assay: Cumulative sGAG loss and final sGAG content (DMMB) in IL-1β challenge, human ankle cartilage; assay type: cell-based; conditions: 100 pg/ml IL-1β alone; 10-day time point
Protocol: (§1) Preliminary dose response experiments were performed to test the effects of human IL-1β (PeproTech, Rocky Hill, NJ) on human ankle cartilage. Ankle cartilage explants from two different donors (equilibrated in culture medium post-harvest) were cultured in serum-free low glucose medium (same composition as equilibration medium) and treated with continuous IL-1β doses ranging from 10 pg/ml to 1 ng/ml for 8 days. The experiments also included groups of explants that were treated with 300 ng/ml free IGF-1 at each dose level of IL-1β. Based on the results of these experiments, 100 pg/ml IL-1β was chosen as the dose used for the fusion protein dose response experiments. In these experiments, ankle and knee cartilage explants (equilibrated in culture medium post-harvest) were treated continuously with IL-1β and received single doses of fusion proteins (ranging from 39.2 nM to 2 μM) at the start of the experiments. Media changes with IL-1β but without fusion proteins were performed once every 2 to 3 days. An untreated control group, a control with continuous IL-1β alone, and a control with IL-1β combined with continuous free IGF-1 (300 ng/ml or 39.2 nM) were included. Experiments were terminated at 7-day and 10-day timepoints, and the sGAG biosynthesis rate, metabolic rate, sGAG loss to culture medium and sGAG content of the explants were measured.
The metabolic rate of cartilage explants was measured using the Alamar Blue assay (ThermoFisher). Cartilage explants were incubated for 3 hours in a 1× solution of Alamar Blue dissolved in culture medium. At the end of the incubation period, the absorbance of the medium at 570 nm and 600 nm was measured using a microplate reader (Synergy H1 Hybrid Multi-Mode Microplate Reader, BioTek). These readings were used to calculate the percentage reduction of Alamar Blue, which is directly proportional to the explant metabolic rate. These values were first normalized by individual explant weights. Following this, the weight-normalized readings for the treatment groups were normalized by the weight-normalized mean value for the untreated controls. To measure the chondrocyte biosynthesis rate of sulfated glycosaminoglycans (sGAGs), cartilage explants were cultured in the presence of 10 μCi/mL 35S-sulfate radiolabel during the final two days of each experiment. […] To calculate the cumulative loss of GAGs from the explants, the amount of sGAG lost to the medium and that left behind in the explants at the end of the experiment were measured using the dimethylene blue (DMMB) dye binding assay (Farndale et al., Biochim Biophys Acta. 883(2):173-177 (1986)).

[2] = tested on: human ankle cartilage explants treated with IL-1β; assay: IL-1β cytokine challenge model, sGAG biosynthesis rate in human ankle cartilage explants; assay type: cell-based; conditions: 100 pg/ml (Experiment 5A also 500 pg/ml and 1000 pg/ml) human IL-1β alone; days 6-8
Protocol: Cartilage was harvested from the ankles of a donor (Collins Grade 1) and a donor (Collins Grade 1). Cartilage explants were equilibrated in culture media for 2 days after harvest. […] These were cut down to 1 mm thickness and allowed to equilibrate for a further 2 days before experiments were set up. Human IL-1β was used to induce osteoarthritis-like changes in cartilage. Experiments were set up to identify IL-1β doses at which 40 nM of free IGF-1 can rescue the IL-1β induced biosynthesis loss in cartilage. A dose response experiment in which single doses of (+9GFP)-(GGGGS)4-(IGF-1) (SEQ ID NO: 7) and (+9GFP)-(EAAAK)3-(IGF-1) (SEQ ID NO: 8) were added along with 100 pg/ml human IL-1β was also set up.
Experimental groups (N=8 to 10 cartilage explants in each group): Untreated control (Ctrl in FIG. 6A and FIG. 6B), 10 pg/mL human IL-1β (10 pg/ml IL-1b in FIG. 6A and FIG. 6B), 10 pg/mL human IL-1β+40 nM IGF-1 (10 pg/ml IL-1b+40 nM IGF-1 in FIG. 6A and FIG. 6B), 100 pg/mL human IL-1β (100 pg/ml IL-1b in FIG. 6A and FIG. 6B), 100 pg/mL human IL-1β+40 nM IGF-1 (100 pg/ml IL-1b+40 nM IGF-1 in FIG. 6A and FIG. 6B), 500 pg/mL human IL-1β (500 pg/ml IL-1b in FIG. 6A and […]), 500 pg/mL human IL-1β+40 nM IGF-1 (500 pg/ml IL-1b+40 nM IGF-1 in FIG. 6A and FIG. 6B), 1000 pg/mL human IL-1β (1 ng/ml IL-1b in FIG. 6A and FIG. 6B), 1000 pg/mL human IL-1β+40 nM IGF-1 (1 ng/ml IL-1b+40 nM IGF-1 in FIG. 6A and FIG. 6B). Media changes were performed every 2 days and the experiment was terminated after 8 days.
Chondrocyte biosynthesis rate (primarily aggrecan synthesis) was measured between days 6 and 8 of the experiment using a 35S-sulfate radiolabel. Statistics: 1-way ANOVA with post-hoc Tukey's HSD test.
This experiment was set up with cartilage explants from the donor ankle. Experimental groups (N=8 to 10 cartilage explants in each group): Untreated control (Ctrl in FIG. 6C), Continuous human IL-1β control (100 pg/ml dose added with every media change) (IL-1b in FIG. 6C), Continuous human IL-1β+continuous free IGF-1 control (100 pg/ml human IL-1β and 40 nM free IGF-1 dose added with every media change) (IL-1b+IGF1 FIG. 6C), Continuous human IL-1β+(+9GFP)-(GGGGS)4-(IGF-1) (SEQ ID NO: 7) 500 nM single dose (100 pg/ml human IL-1β added with every media change; Single 500 nM fusion protein dose added on Day 0) (IL-1b+0.5 μM Flex-1 in FIG. 6C), Continuous human IL-1β+(+9GFP)-(GGGGS)4-(IGF-1) (SEQ ID NO: 7) 1 μM single dose (100 pg/ml human IL-1β added with every media change; Single 1 μM fusion protein dose added on Day 0) (IL-1b+1 μM Flex-1 in FIG. 6C), Continuous human IL-1β+(+9GFP)-(EAAAK)3-(IGF-1) (SEQ ID NO: 8) 500 nM single dose (100 pg/ml human IL-1β added with every media change; Single 500 nM fusion protein dose added on Day 0), Continuous human IL-1β+(+9GFP)-(EAAAK)3-(IGF-1) (SEQ ID NO: 8) 1 μM single dose (100 pg/ml human IL-1β added with every media change; Single 1 μM fusion protein dose added on Day 0) (IL-1b+1 μM Rig-1 in FIG. 6C).
as §1, with “Media changes with IL-1β but without fusion proteins were performed once every 2 to 3 days. An untreated control group, a control with continuous IL-1β alone, and a control with IL-1β combined with continuous free IGF-1 (300 ng/ml or 39.2 nM) were included. Experiments were terminated at 7-day and 10-day timepoints, and the sGAG biosynthesis rate, metabolic rate, sGAG loss to culture medium and sGAG content of the explants were measured.” left out

[3] = tested on: human ankle cartilage explants; assay: Quantitative uptake of fusion proteins in human ankle cartilage (uptake ratio); assay type: in vitro ADME; conditions: 1 μM in PBS + 1% BSA
Protocol: Cartilage explants were incubated in 250 μL of 1 μM solutions of different fusion proteins dissolved in 1×PBS+1% BSA for either 36 hours (FIG. 4A) or for 108 hours (FIG. 4B) (4.5 days). A group with free +9 GFP dissolved in 1×PBS+1% BSA (1 μM concentration) was included as a control for each of these two time points. An additional untreated control was included in these experiments. Cartilage explants were incubated in plain 1×PBS+1% BSA to account for and to correct for any autofluorescence effects. At the end of the incubation in the 1×PBS+1% BSA: The explants were transferred to a 10×PBS+1% BSA bath for 48 hours. The purpose of this was to desorb the GFPs taken up by the explants. The amount of GFPs left behind in the […] bath was quantified through fluorescence measurements. The desorption step in 10×PBS+1% BSA was followed by a second desorption step using fresh 10×PBS+1% BSA just to ensure any GFPs left in the explant after the 1st desorption come out. At the end of each desorption step, the fluorescence of the 10×PBS+1% BSA bath was measured. After the 2nd desorption step, the explants were digested in Proteinase K and their fluorescence was measured. The uptake ratio for the 36 hour and 108 hour experiments was calculated as (FIG. 4C): […]
Cartilage explants that had been equilibrated in culture medium post-harvest were transferred to sterile PBS and allowed to equilibrate for 1 hour before the start of the experiments. Sterile PBS solutions containing 1% bovine serum albumin (BSA) were prepared. Following this, 1 μM solutions of (+9GFP), (+9GFP)-(GGGGS)4-(IGF-1) (SEQ ID NO: 7), (+9GFP)-(EAAAK)3-(IGF-1) (SEQ ID NO: 8) and (+9GFP)-(GGGGS)3-(IGF-1) (SEQ ID NO: 9) were prepared. The BSA was included in the PBS to minimize loss of GFPs in the solution caused by non-specific binding to the plasticware. […] In contrast, use of polypropylene with 1% BSA enabled complete recovery of fluorescence.
At the end of the incubation period, cartilage explants were washed with PBS and transferred to a solution of 10×PBS+1% BSA for desorption. At the same time, the fluorescence of the absorption bath was measured using a plate reader (Synergy H1, Biotek Instruments Inc.) (excitation: 485 nm, emission: 528 nm). […] At the end of the desorption in 10×PBS+1% BSA, cartilage explants were weighed, and the fluorescence of the desorption bath was measured. This fluorescence measurement was used with a standard curve and the explant wet weights to calculate the concentration of GFP inside cartilage explants (mol/mg wet weight). The uptake ratio was calculated as the ratio of GFP concentration inside cartilage (mol/mg wet weight) to the final absorption bath concentration (mol/mL).

| Substance | cumulative sGAG loss compared to the untreated control [1] | aggrecan biosynthesis compared to the untreated control [2] | Uptake ratio (Mean) ([3]; 36 hr) | Uptake ratio (Mean) ([3]; 108 hr) |
| --- | --- | --- | --- | --- |
| IL-1β: human IL-1β (PeproTech), cytokine used to induce osteoarthritis-like biosynthesis loss in cartilage explants [reference compound] | higher cumulative sGAG loss | significant reduction | – | – |
| (+9GFP)-(GGGGS)3-(IGF-1): fusion protein of +9 GFP and human IGF-1 with flexible (GGGGS)3 linker, SEQ ID NO: 9 | – | – | 13.1 | 24.2 |

From patent US12653899B2, “Multi-targeted, tunable, sustained delivery of payloads to charged avascular tissues” (Massachusetts Institute of Technology, priority 2019, dated 2026)
